The source of these data is ChEMBL document CHEMBL1208673, “CoMFA and CoMSIA 3D-QSAR studies on quionolone caroxylic acid derivatives inhibitors of HIV-1 integrase” (Eur J Med Chem, 2010).

Each structure is given as a SMILES string.

In general, IC50 refers to the concentration needed to halve the response being measured. Low readings indicate inhibition by little substance, high ones a need for much substance.

For this assay, the target named is Human immunodeficiency virus type 1 integrase (Human immunodeficiency virus 1, UniProt Q7ZJM1). Briefly: Inhibition of HIV-1 integrase.
Sequence of Human immunodeficiency virus type 1 integrase (Q7ZJM1 whole entry): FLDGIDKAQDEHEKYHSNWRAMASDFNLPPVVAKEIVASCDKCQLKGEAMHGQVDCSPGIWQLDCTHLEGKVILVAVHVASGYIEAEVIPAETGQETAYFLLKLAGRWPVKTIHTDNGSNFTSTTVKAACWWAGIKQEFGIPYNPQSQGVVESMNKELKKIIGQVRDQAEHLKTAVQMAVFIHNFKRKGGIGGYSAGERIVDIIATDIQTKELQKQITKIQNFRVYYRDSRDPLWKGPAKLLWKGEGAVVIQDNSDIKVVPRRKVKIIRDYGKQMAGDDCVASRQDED
`COc1cc2c(cc1Cc1cccc(Cl)c1F)c(=O)c(C(=O)O)cn2CCO` gave an IC50 of 8.91 nM. Then `O=C(O)Cn1cc(C(=O)O)c(=O)c2cc(Cc3cccc(Cl)c3Cl)ccc21`, with 31.6 nM; and `O=C(O)c1c[nH]c2ccc(Cc3cccc(Cl)c3Cl)cc2c1=O`, with 69.2 nM.
